From ChEMBL document CHEMBL1759873, “Novel thiolactone-isatin hybrids as potential antimalarial and antitubercular agents” (Bioorg Med Chem Lett, 2011) come the findings set out here.

Structures are written as SMILES. In brackets after ≈: the same amount, converted by molar mass. Bounds are passed on as bounds.

The subject of one experiment is Plasmodium falciparum. Briefly: Antiplasmodial activity against Plasmodium falciparum W2. It is filed as functional, organism-based.
In experiment [1] the test system is Mycobacterium tuberculosis. Description: Antitubercular activity against Mycobacterium tuberculosis H37Rv by microplate alamar blue assay. It is filed as functional. On the technique in general: The colour change of resazurin is a common sign of viable cells or microbes.
For experiment [2], the system named is Mycobacterium tuberculosis. Briefly: Antitubercular activity against Mycobacterium tuberculosis H37Rv at 10 ug/ml by BACTEC radiometric susceptibility assay. It is filed as functional.
Experiment [3] is described as follows: Inhibition of Plasmodium falciparum W2 recombinant falcipain-2.
Experiment [4] relates to Mycobacterium tuberculosis. Description: Antitubercular activity against Mycobacterium tuberculosis H37Rv by LORA assay. The experiment is classed as functional.
Experiment [5] concerns Mycobacterium tuberculosis. Description: Antitubercular activity against Mycobacterium tuberculosis H37Rv at 1 ug/ml by BACTEC radiometric susceptibility assay. The experiment is classed as functional.

For orientation: IC50 means the concentration that gives 50% inhibition. The MIC is the lowest concentration that inhibits growth of the organism. As a reminder, the inhibition is the drop in the measured response relative to a control, in per cent. On to `CC1=C(OCCN2C(=O)C(=O)c3cc(Cl)ccc32)C(C)SC1=O` (centres undefined), for which the concentration for half-maximal inhibition (IC50) in the experiment with Plasmodium falciparum is over 20 µM; in experiment [3], 47.8 µM. Moreover, the figures for the MIC in experiment [1] and in experiment [4] were 63.7 µM (≈ 22.4 µg/mL) and 117 µM (≈ 41.2 µg/mL), respectively. Further, in experiment [2], the inhibition at 10 µg/mL stood at 9.9%. Also, the inhibition at 1 µg/mL in experiment [5] is -2.8%.

Take `O=C1C(=O)N(CCCCCBr)c2ccccc21`: the IC50 with Plasmodium falciparum is over 20 µM; in experiment [3] it was over 100 µM. In addition, the MIC in experiment [1] came to 23.2 µM (≈ 6.87 µg/mL); in experiment [4] it was 44.4 µM (≈ 13.1 µg/mL). Moreover, the inhibition at 10 µg/mL in experiment [2] amounted to 34.8%. In addition, the inhibition at 1 µg/mL in experiment [5] is -22.1%.

Regarding `Cc1ccc2c(c1)C(=O)C(=O)N2CCCCBr`, the IC50 with Plasmodium falciparum was over 20 µM; in experiment [3], over 100 µM. Moreover, the minimal inhibitory concentration (MIC) in experiment [1] was found to be 62.7 µM (≈ 18.6 µg/mL); in experiment [4], 53.2 µM (≈ 15.8 µg/mL).

On to `O=C1C(=O)N(CCCCBr)c2ccc(Br)cc21`, for which the IC50 in the experiment with Plasmodium falciparum was over 20 µM; in experiment [3], over 100 µM. In addition, the MIC in experiment [1] was 30.5 µM (≈ 11 µg/mL); in experiment [4] it was 37.7 µM (≈ 13.6 µg/mL).

As to `O=C1C(=O)N(CCCCCCBr)c2ccccc21`, the results for the concentration for half-maximal inhibition (IC50) (with Plasmodium falciparum; in experiment [3]) were over 20 µM and over 100 µM, respectively. The MIC in experiment [1] was 97.6 µM (≈ 30.3 µg/mL); in experiment [4], 108 µM (≈ 33.5 µg/mL).
